Experimental data from patent publication US10766902B2, “Wee-1 inhibiting pyrazolopyrimidinone compounds” (ALMAC DISCOVERY LIMITED, priority 2016, dated 2020).

biological target: Wee-1 kinase (Homo sapiens (Human), UniProt P30291); assay: Measurement of Wee-1 kinase activity (ADP-Glo luminescence); format: biochemical; conditions: read-out: Wee1 IC50
Method: Method 1: Measurement of Wee-1 Kinase Activity
In the measurement of Wee-1 activity, a commercial peptide Poly(Lys Tyr(4:1)) hydrobromide was purchased from Sigma Aldrich and used as the substrate. Activated Wee-1 kinase was purchased from Invitrogen (PV3817) and an ADP-Glo luminescent kit was purchased from Promega.
All reactions took place in […] volumes in reaction buffer containing 40 mM Tris-HCl and 20 mM magnesium chloride, supplemented with 0.1 mg/mL bovine serum albumin and 2 mM DTT. Compounds were serially diluted in buffer and 5 μL of each concentration pipetted into a white 384 well plate (Sigma Aldrich M6186). A 5 μL aliquot of the Wee-1 enzyme was added to each well and the plate centrifuged for 1 min to ensure mixing of the enzyme and inhibitor.
The plate was incubated at room temperature for 30 minutes before the addition of 2.0 μg/mL of substrate and 30 μM ATP in a 5 μL aliquot. The plate was centrifuged for one minute and incubated for 1 h at RT.
15 μL of ADP-Glo stop reagent was added to each well to quench the reaction and deplete unconverted ATP. The plate was incubated for a further 40 min in the dark at RT.
30 μL of ADP-Glo kinase detection reagent was added to each well, converting ADP to ATP, catalysing the generation of luciferin by luciferase. The plate was shaken for 1 min, and incubated in the dark for an additional hour.
Luminescence from each well was detected using the Biotek Synergy4 HD plate reader and the percentage inhibition of kinase activity calculated for each inhibitor tested. Positive (kinase only) and negative (no kinase) controls were added to each plate to ensure specific interaction of kinase and inhibitor. The IC50 concentration for each inhibitor was calculated by plotting the percentage kinase inhibition against concentration of inhibitor and the curve generated by non-linear regression fitting.

Chain of Wee-1 kinase (P30291 whole entry): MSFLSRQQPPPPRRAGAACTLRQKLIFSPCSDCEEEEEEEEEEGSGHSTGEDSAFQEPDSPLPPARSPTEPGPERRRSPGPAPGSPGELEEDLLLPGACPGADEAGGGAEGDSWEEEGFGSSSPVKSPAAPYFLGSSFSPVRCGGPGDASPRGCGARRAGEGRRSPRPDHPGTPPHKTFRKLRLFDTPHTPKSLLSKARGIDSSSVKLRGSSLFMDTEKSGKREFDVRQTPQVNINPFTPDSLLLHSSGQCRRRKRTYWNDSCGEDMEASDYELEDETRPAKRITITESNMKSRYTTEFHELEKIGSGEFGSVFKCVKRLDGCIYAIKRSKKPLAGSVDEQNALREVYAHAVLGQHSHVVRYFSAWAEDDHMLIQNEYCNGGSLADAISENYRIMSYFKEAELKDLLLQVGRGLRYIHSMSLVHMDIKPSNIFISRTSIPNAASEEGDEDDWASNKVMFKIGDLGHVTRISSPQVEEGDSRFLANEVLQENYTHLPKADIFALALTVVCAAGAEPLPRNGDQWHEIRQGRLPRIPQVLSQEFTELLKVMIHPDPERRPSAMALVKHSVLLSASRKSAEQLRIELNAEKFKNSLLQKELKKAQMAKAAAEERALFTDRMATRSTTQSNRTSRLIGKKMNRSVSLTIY

Compound | IC50
C=CCn1c(=O)c2cnc(Nc3ccc(N(C)C)c(C(O)C(F)(F)F)c3)nc2n1-c1cccc(N=S(C)(C)=O)n1 (racemic) [Example 83, rac-1-(6-{[Dimethyl(oxo)-λ^6-sulfanylidene]amino}pyridin-2-yl)-6-{[4-(dimethylamino)-3-(2,2,2-trifluoro-1-hydroxyethyl)phenyl]amino}-2-(prop-2-en-1-yl)-1H,2H,3H-pyrazolo[3,4-d]pyrimidin-3-one] | 0.4 nM
C=CCn1c(=O)c2cnc(Nc3ccc(N4CCNC(C(F)(F)F)C4)cc3)nc2n1-c1cncc(N=S(C)(C)=O)n1 (racemic) [Example 93, rac-1-(6-{[Dimethyl(oxo)-λ^6-sulfanylidene]amino}pyrazin-2-yl)-2-(prop-2-en-1-yl)-6-({4-[3-(trifluoromethyl)piperazin-1-yl]phenyl}amino)-1H,2H,3H-pyrazolo[3,4-d]pyrimidin-3-one] | 0.4 nM
C=CCn1c(=O)c2cnc(Nc3ccc(N4CCN(C)CC4)cc3)nc2n1-c1cccc(S(C)(=O)=NC#N)n1 (stereo not drawn) [Example 1, 1-{6-[(Cyanoimino)(methyl)oxo-λ^6-sulfanyl]pyridin-2-yl}-6-{[4-(4-methylpiperazin-1-yl)phenyl]amino}-2-(prop-2-en-1-yl)-1H,2H,3H-pyrazolo[3,4-d]pyrimidin-3-one] | 1.1 nM
CCCn1c(=O)c2cnc(Nc3ccc(N4CCN(C)CC4)cc3)nc2n1-c1cccc(N=S(C)(C)=O)n1 [Example 11, 1-(6-{[Dimethyl(oxo)-λ^6-sulfanylidene]amino}pyridine-2-yl)-6-{[4-(4-methylpiperazin-1-yl)phenyl]amino}-2-propyl-1H,2H,3H-pyrazolo[3,4-d]pyrimidin-3-one] | 1.2 nM
C=CCn1c(=O)c2cnc(Nc3ccc(N4CCN(C)CC4)cc3)nc2n1-c1cccc(N=S(C)(C)=O)c1 [Example 16, 1-(3-{[Dimethyl(oxo)-λ^6-sulfanylidene]amino}phenyl)-6-{[4-(4-methylpiperazin-1-yl)phenyl]amino}-2-(prop-2-en-1-yl)-1H,2H,3H-pyrazolo[3,4-d]pyrimidin-3-one] | 1 nM
C=CCn1c(=O)c2cnc(Nc3ccc(N4CCNCC4)cc3)nc2n1-c1cccc(N=S(C)(C)=O)c1 [Example 18, 1-(3-{[Dimethyl(oxo)-λ^6-sulfanylidene]amino}phenyl)-6-{[4-(piperazin-1-yl)phenyl]amino}-2-(prop-2-en-1-yl)-1H,2H,3H-pyrazolo[3,4-d]pyrimidin-3-one] | 0.8 nM
C=CCn1c(=O)c2cnc(Nc3ccc(N4CCOCC4)c(CNC)c3)nc2n1-c1cccc(N=S(C)(C)=O)c1 [Example 22, 1-(3-{[Dimethyl(oxo)-λ^6-sulfanylidene]amino}phenyl)-6-({3-[(methylamino)methyl]-4-(morpholin-4-yl)phenyl}amino)-2-(prop-2-en-1-yl)-1H,2H,3H-pyrazolo[3,4-d]pyrimidin-3-one] | 2.6 nM
C=CCn1c(=O)c2cnc(Nc3ccc(N4CCN(C)CC4)cc3)nc2n1-c1cccc(N=S2(=O)CCCC2)n1 [Example 23, 2-Allyl-6-((4-(4-methylpiperazin-1-yl)phenyl)amino)-1-(6-((1-oxidotetrahydrothiophen-1-ylidene)amino)pyridin-2-yl)-1H-pyrazolo[3,4-d]pyrimidin-3(2H)-one] | 0.9 nM

Second part, the compound after the results:

IC50 | Compound
1.8 nM | C=CCn1c(=O)c2cnc(Nc3ccc(N4CCNCC4)cc3)nc2n1-c1cccc(N=S(C)(C)=O)n1 [Example 6, 1-(6-{[Dimethyl(oxo)-λ^6-sulfanylidene]amino}pyridine-2-yl)-6-{[4-(piperazin-1-yl)phenyl]amino}-2-(prop-2-en-1-yl)-1H,2H,3H-pyrazolo[3,4-d]pyrimidin-3-one]
0.3 nM | C=CCn1c(=O)c2cnc(Nc3ccc(N4CCN(C5CC5)CC4)cc3)nc2n1-c1cccc(N=S(C)(C)=O)n1 [Example 8, 6-{[4-(4-Cyclopropylpiperazin-1-yl)phenyl]amino}-1-(6-{[dimethyl(oxo)-λ^6-sulfanylidene]amino}pyridine-2-yl)-2-(prop-2-en-1-yl)-1H,2H,3H-pyrazolo[3,4-d]pyrimidin-3-one]
1.5 nM | C=CCn1c(=O)c2cnc(Nc3ccc(N4CCN[C@H](C)C4)cc3)nc2n1-c1cccc(N=S(C)(C)=O)n1 [Example 9, 1-(6-{[Dimethyl(oxo)-λ^6-sulfanylidene]amino}pyridine-2-yl)-6-({4-[(3R)-3-methylpiperazin-1-yl]phenyl}amino)-2-(prop-2-en-1-yl)-1H,2H,3H-pyrazolo[3,4-d]pyrimidin-3-one]
0.9 nM | C=CCn1c(=O)c2cnc(Nc3ccc(N4CCN(CC)CC4)cc3)nc2n1-c1cccc(N=S(C)(C)=O)n1 [Example 10, 1-(6-{[Dimethyl(oxo)-λ^6-sulfanylidene]amino}pyridine-2-yl)-6-{[4-(4-ethylpiperazin-1-yl)phenyl]amino}-2-(prop-2-en-1-yl)-1H,2H,3H-pyrazolo[3,4-d]pyrimidin-3-one]
1.2 nM | C=CCn1c(=O)c2cnc(Nc3ccc(C4CCNCC4)cc3)nc2n1-c1cccc(N=S(C)(C)=O)n1 [Example 13, 1-(6-{[Dimethyl(oxo)-λ^6-sulfanylidene]amino}pyridine-2-yl)-6-{[4-(piperidin-4-yl)phenyl]amino}-2-(prop-2-en-1-yl)-1H,2H,3H-pyrazolo[3,4-d]pyrimidin-3-one]
0.9 nM | C=CCn1c(=O)c2cnc(Nc3ccc4c(c3)CN(C)CC43CC3)nc2n1-c1cccc(N=S(C)(C)=O)n1 [Example 15, 1-(6-{[Dimethyl(oxo)-λ^6-sulfanylidene]amino}pyridine-2-yl)-6-({2′-methyl-2′,3′-dihydro-1′H-spiro[cyclopropane-1,4′-isoquinoline]-7′-yl}amino)-2-(prop-2-en-1-yl)-1H,2H,3H-pyrazolo[3,4-d]pyrimidin-3-one]
1.1 nM | C=CCn1c(=O)c2cnc(Nc3ccc(N4C[C@@H](C)N[C@@H](C)C4)cc3)nc2n1-c1cccc(N=S(C)(C)=O)n1 [Example 17, 1-(6-{[Dimethyl(oxo)-λ^6-sulfanylidene]amino}pyridin-2-yl)-6-({4-[(3R,5S)-3,5-dimethylpiperazin-1-yl]phenyl}amino)-2-(prop-2-en-1-yl)-1H,2H,3H-pyrazolo[3,4-d]pyrimidin-3-one]
1 nM | C=CCn1c(=O)c2cnc(Nc3ccccc3)nc2n1-c1cccc(N=S(C)(C)=O)n1 [Example 19, 1-(6-{[Dimethyl(oxo)-λ^6-sulfanylidene]amino}pyridin-2-yl)-6-(phenylamino)-2-(prop-2-en-1-yl)-1H,2H,3H-pyrazolo[3,4-d]pyrimidin-3-one]
1.4 nM | C=CCn1c(=O)c2cnc(Nc3ccc(N4CCN(C)CC4)c(OC)c3)nc2n1-c1cccc(N=S(C)(C)=O)n1 [Example 24, 1-(6-{[Dimethyl(oxo)-λ^6-sulfanylidene]amino}pyridin-2-yl)-6-{[3-methoxy-4-(4-methylpiperazin-1-yl)phenyl]amino}-2-(prop-2-en-1-yl)-1H,2H,3H-pyrazolo[3,4-d]pyrimidin-3-one]
0.7 nM | C=CCn1c(=O)c2cnc(Nc3ccc(N4CCOCC4)c(OC)c3)nc2n1-c1cccc(N=S(C)(C)=O)n1 [Example 25, 1-(6-{[Dimethyl(oxo)-λ^6-sulfanylidene]amino}pyridin-2-yl)-6-{[3-methoxy-4-(morpholin-4-yl)phenyl]amino}-2-(prop-2-en-1-yl)-1H,2H,3H-pyrazolo[3,4-d]pyrimidin-3-one]
